In paper PMC12481576, “Barbituric Acid Derivatives as Covalent Inhibitors of Leishmania braziliensis Dihydroorotate Dehydrogenase” (Journal of Medicinal Chemistry, 2025):
Where two headings read alike, the source gives them in different places.

Experiments:
LbDHODH = LbDHODH (Leishmania braziliensis, UniProt E9AI53); assay: biochemical; details: for IC50: LbDHODH
Experimental: To assess the ability of compounds 2a–2i to inhibit LbDHODH via covalent bond formation with Cys^131, we initially screened them at a concentration of 100 μM under two conditions: with and without a 4-h preincubation with the enzyme.
The experiments were performed in a 96-well microplate reader (SpectraMax Plus 384, Molecular Devices, USA), containing the […] of the buffer 60 mM DCIP, 50 mM Tris pH 8.15, 150 mM KCl, 0.1% Triton X-100, 50 μM DHO and 10 μM of LbDHODH at 165 nM. The reaction was monitored every 3 s at 610 nm over a period of 60 s, in triplicate, for the control and each concentration of the inhibitor. All assays were performed without incubation (0h) and with 4-h preincubation of the inhibitor with LbDHODH, using 5% DMSO (v/v) as control. […]. […] The resulting kobs values were plotted as a function of inhibitor concentration, and the data in the initial linear region was fit to determine the slope, which is kinact/KI. All regressions were performed with GraphPad Prism 9.

[1] = Cell viability / cytotoxicity assay (PrestoBlue, 72 h); format: cell-based; details: human; THP-1 cell line, 72 h, max 200 μM; read-out: CC50
Experimental: THP-1 cells (American Type Cell Collection, #TIB-202) were acquired in 2019 and stored frozen in liquid nitrogen. The cells were then maintained in RPMI 1640 (Thermo Fisher Scientific, #S31800–022) at 37 °C in a 5% CO2 atmosphere and routinely tested for Mycoplasma contamination by PCR using the primers 5′-[…] and 5′-[…]. To test the toxicity of compounds, 5000 cells were added to 96-well plates with a final volume of 80 μL centrifuged at 400g for 2 min and incubated with 150 ng/mL of phorbol myristate acetate (Merck, #P8139) for 48 h. The medium was replaced, and after 24 h, the compounds were added and tested at decreasing concentrations starting from 200 μM (10 μL/well). After 72 h of incubation, 10 μL of PrestoBlue Cell Viability Reagent (Thermo Fisher Scientific, #A13262) was added per well. After adding the reagent, the cells were incubated for 2 h at 37 °C in a 5% CO2 atmosphere, and fluorescence readings were performed using the SpectraMax M3 reader (excitation at 560 nm and emission at 590 nm).

[2] = tested on: Leishmania braziliensis promastigotes; assay: Leishmanicidal activity, promastigote growth (SYBR Green, 72 h); format: cell-based, Leishmania (V.) braziliensis (MHOM/BR/1975/M2904); details: Leishmania braziliensis, L. braziliensis promastigotes, max 200 μM
Experimental: The cultures were adjusted to 4 × 10^6 parasites per mL, and 50 μL of each culture was added on a test plate with 384 wells (Corning, #CLS3658), along with the controls and compounds to be tested. Previously diluted compounds in DMSO were added to plates in decreasing concentrations, with a maximum concentration of 200 μM. Parasites were exposed to a final concentration of DMSO in various dilutes (final = 0.5%), and the culture medium was used as the control for the experiment. […] After adding the lysis buffer, the plates were incubated in the dark for 2 h with gentle shaking. The readings were done using a SpectraMax M3 reader (excitation at 485 nm and emission at 535 nm).

HsDHODH = molecular target: T1, HsDHODH (Homo sapiens, UniProt Q02127); assay: Selectivity assay: HsDHODH single-dose inhibition (DCIP reduction); format: biochemical
T1 construct: made in house
T1 sequence (Q02127 whole entry): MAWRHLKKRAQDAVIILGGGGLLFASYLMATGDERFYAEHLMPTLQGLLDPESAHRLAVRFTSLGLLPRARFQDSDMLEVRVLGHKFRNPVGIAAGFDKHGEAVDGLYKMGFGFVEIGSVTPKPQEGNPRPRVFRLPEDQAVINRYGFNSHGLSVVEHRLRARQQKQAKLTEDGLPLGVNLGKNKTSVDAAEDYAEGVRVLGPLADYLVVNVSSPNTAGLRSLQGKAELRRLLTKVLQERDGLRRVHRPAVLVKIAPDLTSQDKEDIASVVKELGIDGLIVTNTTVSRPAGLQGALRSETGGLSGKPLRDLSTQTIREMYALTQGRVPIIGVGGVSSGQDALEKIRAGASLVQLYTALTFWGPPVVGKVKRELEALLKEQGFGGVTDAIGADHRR
Experimental: […]. This finding highlights the potential of barbituric acid derivatives as selective inhibitors of LbDHODH.
Human DHODH expression and purification were conducted following a protocol previously established in our laboratory. The purification was carried out by affinity chromatography on a Ni-NTA Agarose column (Qiagen[…] Cat. No. 30210). […] The reaction was performed in triplicate, initiated by adding 195 μL of reaction buffer to 5 μL of HsDHODH protein solution for a final concentration of 20 nM enzyme. As a blank, 195 μL of reaction buffer was added to 5 μL of Buffer A. The reaction was monitored at 610 nm every 3 s over 60 s. As a control, 5 μL of enzyme was added to 195 μL of reaction medium without compound. Enzymatic velocity was calculated, and the percentage of relative enzymatic activity was determined relative to the control.

[3] = 0 h, pH 8.15, read-out: LbDHODH Activity±SD (%)
[4] = 4 h, pH 8.15, read-out: LbDHODH Activity±SD (%)
[5] = IC50 0 h, without preincubation
[6] = read-out: Single dose (0h) % activity
[7] = read-out: Single dose (4h) % activity

Chain of LbDHODH (E9AI53 entry or part of it): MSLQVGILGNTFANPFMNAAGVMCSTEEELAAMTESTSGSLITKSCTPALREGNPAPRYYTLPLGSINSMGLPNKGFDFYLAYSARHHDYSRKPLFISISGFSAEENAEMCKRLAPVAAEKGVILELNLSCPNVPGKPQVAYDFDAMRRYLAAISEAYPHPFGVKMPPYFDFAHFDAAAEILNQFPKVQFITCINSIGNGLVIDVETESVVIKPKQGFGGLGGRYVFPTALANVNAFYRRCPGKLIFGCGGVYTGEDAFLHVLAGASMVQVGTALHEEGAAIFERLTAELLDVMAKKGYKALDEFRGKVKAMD

## O=C1NC(=O)C(=Cc2ccc(C(=O)O)cc2)C(=O)N1 [2b, 4-((2,4,6-Trioxotetrahydropyrimidin-5(2H)-ylidene)methyl)benzoic Acid]
LbDHODH; [3]
  activity at 0.195312 µM: 98 ± 18%
  activity at 0.390625 µM: 96 ± 9%
  activity at 0.78125 µM: 100 ± 8%
  activity at 1.5625 µM: 96 ± 7%
  activity at 3.125 µM: 97 ± 7%
  activity at 6.25 µM: 94 ± 18%
  activity at 12.5 µM: 97 ± 10%
  activity at 25 µM: 72 ± 10%
  activity at 50 µM: 72 ± 6%
  activity at 100 µM: 65 ± 5%
  activity at 200 µM: 60 ± 22%
  activity at 400 µM: 86 ± 18%
LbDHODH; [4]
  activity at 0.195312 µM: 94 ± 11%
  activity at 0.390625 µM: 99 ± 11%
  activity at 0.78125 µM: 91 ± 20%
  activity at 1.5625 µM: 80 ± 8%
  activity at 3.125 µM: 90 ± 6%
  activity at 6.25 µM: 83 ± 13%
  activity at 12.5 µM: 65 ± 4%
  activity at 25 µM: 66 ± 4%
  activity at 50 µM: 29 ± 5%
  activity at 100 µM: 15 ± 1%
  activity at 200 µM: 13 ± 6%
  activity at 400 µM: 7 ± 2%
LbDHODH; [5]
  IC50: > 100 µM
LbDHODH; IC50 4 h, 4-h preincubation
  IC50: 22 ± 1 µM
LbDHODH; [6]
  activity at 100 µM: 70 ± 10%
LbDHODH; [7]
  activity at 100 µM: 10 ± 2%
LbDHODH; read-out: enzyme inhibition
  inhibition at 100 µM: 90 to 93%
[1]
  CC50 at 72 h: > 200 µM
[2]
  EC50: > 200 µM
HsDHODH; [6]
  activity at 100 µM: 105 ± 12%
HsDHODH; [7]
  activity at 100 µM: 99 ± 10%

## O=C1NC(=O)C(Cc2cccc(O)c2)C(=O)N1 [3g, 5-(3-Hydroxybenzyl)pyrimidine-2,4,6(1H,3H,5H)-trione]
LbDHODH; LbDHODH remaining activity, compound 100 μM, 4-h preincubation, read-out: single dose (4 h) % activity
  activity at 100 µM: 36 ± 3%
LbDHODH; LbDHODH remaining activity, compound 100 μM, without preincubation, read-out: single dose (0 h) % activity
  activity at 100 µM: 93 ± 5%
[1]
  CC50 at 72 h: > 200 µM
[2]
  EC50: > 200 µM
HsDHODH; [6]
  activity at 100 µM: 87 ± 10%
HsDHODH; [7]
  activity at 100 µM: 86 ± 10%

## O=C1NC(=O)C(Cc2ccc(N3CCOCC3)cc2[N+](=O)[O-])C(=O)N1 [3e, 5-(4-Morpholino-2-nitrobenzyl)pyrimidine-2,4,6(1H,3H,5H)-trione]
LbDHODH; [5]
  IC50: > 100 µM
LbDHODH; IC50 4 h, 4-h preincubation
  IC50: > 100 µM
LbDHODH; [6]
  activity at 100 µM: 90 ± 10%
LbDHODH; [7]
  activity at 100 µM: 80 ± 20%
[1]
  CC50 at 72 h: > 200 µM
[2]
  EC50: 23 ± 16 µM
HsDHODH; [6]
  activity at 100 µM: 105 ± 12%
HsDHODH; [7]
  activity at 100 µM: 89 ± 9%

## O=C1NC(=O)C(CC=Cc2ccccc2)C(=O)N1 [3i, 5-Cinnamylpyrimidine-2,4,6(1H,3H,5H)-trione]
LbDHODH; [6]
  activity at 100 µM: 103 ± 3%
LbDHODH; [7]
  activity at 100 µM: 21 ± 7%
[1]
  CC50 at 72 h: 193 ± 67 µM
[2]
  EC50: > 200 µM
HsDHODH; [6]
  activity at 100 µM: 102 ± 12%
HsDHODH; [7]
  activity at 100 µM: 98 ± 10%

## O=C1NC(=O)C(Cc2ccccc2)C(=O)N1 [3a, 5-Benzylpyrimidine-2,4,6(1H,3H,5H)-trione]
LbDHODH; [5]
  IC50: > 100 µM
LbDHODH; IC50 4 h, 4-h preincubation
  IC50: > 100 µM
LbDHODH; [6]
  activity at 100 µM: 90 ± 10%
LbDHODH; [7]
  activity at 100 µM: 70 ± 8%
[1]
  CC50 at 72 h: > 200 µM
[2]
  EC50: > 200 µM
HsDHODH; [6]
  activity at 100 µM: 109 ± 12%
HsDHODH; [7]
  activity at 100 µM: 97 ± 9%
